# Test: In situ rotigotine salt screening (precipitate formation in ethanol/HFA 227 solution formulation)
# Assay type: physicochemical
# Conditions: for Observation, Immediate / Observation, 1 week at RT / Observation, 1 week at 5° C.: 1 mg/mL rotigotine free base plus acid in 10% (w/w) ethanol in HFA 227; for Observation, Immediate: immediately upon preparation; for Observation, 1 week at RT: stored 1 week at room temperature; for Observation, 1 week at 5° C.: another week at 5° C. after 1 week at RT
# Procedure: Rotigotine, bulk drug substance, was purchased from Chemagis (Perrigo API). A stock solution of rotigotine was prepared by dissolving rotigotine particles in ethanol at 10 mg/mL. With 1.5 mL rotigotine stock solution added to formulation bottles, each formulation bottle contained 15 mg rotigotine. For preparation of acid stock solutions, it was assumed that complete reaction or ion-pairing between rotigotine and acid. Based on the molecular weight and number of anions of each acid as listed in Table 1, acids stock solutions were prepared by dissolving the required amount in ethanol.
# Each formulation bottle was filed with 1.5 mL of rotigotine stock solution and 1.0 ml, of acid stock solution. The formulation bottles (PET bottles) were then sealed with continuous valves and vortexed for 30 seconds to mix the solution well. Finally, 17.6 g of 1,1,1,2,3,3,3-heptafluoropropane (HFA227 (Mexichem)) to make a final volume of 15 mL of rotigotine formulation. All the bottles were hand shaken for 10 seconds.
# All in situ salt screening samples were made as 1 mg/mL of rotigtine free base in 10% (w/w) ethanol in HFA 227. Acids corresponding to the salt forms in Table 1 were added according to the molar ratio with rotigotine for complete reaction. As 1 mg/mL was the minimal required dose at the time of experiment, all formulations were tested at this level to screen out non-solution salt formulations.
# These were the rotigotine citrate, fumarate, succinate, sulfate, tartrate, xinafoate salt formulations. […] rotigotine salt formulations were immediately ruled out as the precipitate formation was not desired. All clear solution samples were stored at room temperature (RT) for 1 week. […] These were rotigotine acetate, benzoate and mesylate salt formulations. These 3 rotigotine salt formulations were also ruled out as precipitate formation is not desired. The rest of the samples remained as clear solutions (stable) at after another week at 5° C.
"Observation, Immediate","Observation, 1 week at RT","Observation, 1 week at 5° C.","Solution formulation at the minimum required concentration (1 mg/mL, 10% (w/w) ethanol in HFA 227)",Molecule
solution,red precipitate,–,–,"CC(=O)O.CCCN(CCc1cccs1)[C@H]1CCc2c(O)cccc2C1 [Acetate, rotigotine acetate]"
white precipitate,–,–,–,O=S(=O)(O)O [Sulfate]
solution,red precipitate,–,–,Benzoate
white precipitate,–,–,–,rotigotine citrate
solution,solution,solution,stayed in solution,rotigotine maleate
solution,solution,solution,–,rotigotine palmitate
solution,solution,solution,–,rotigotine pamoate

# Continued, molecule first:
Molecule,"Observation, Immediate","Observation, 1 week at RT","Observation, 1 week at 5° C.","Solution formulation at the minimum required concentration (1 mg/mL, 10% (w/w) ethanol in HFA 227)"
"CC(O)C(=O)O.CCCN(CCc1cccs1)[C@H]1CCc2c(O)cccc2C1 [Lactate, rotigotine lactate]",solution,solution,solution,–
Fumarate,white precipitate,–,–,–
Tartrate,white precipitate,–,–,–
rotigotine glycolate,solution,solution,solution,–
rotigotine propionate,solution,solution,solution,–
rotigotine stearate,solution,solution,solution,–

# — US20140377365A1, “SUSTAINED-RELEASE FORMULATION OF ROTIGOTINE” (MAP Pharmaceuticals, Inc., priority 2013, published 2014)
